The structures appear in SMILES notation.

One experiment concerns mdx mice. Kind of experiment: In vivo mdx mouse model of dystrophy. On the procedure: Separate groups (n=12-14) of mdx mice were treated with prednisolone (5 mg/kg/day; per oral in feed), Example 1 (20 and 40 mg/kg/day; per oral in feed) and Example 2 (20 and 40 mg/kg/day; per oral in feed) for 3 months. All mice underwent 30 min biweekly treadmill exercise during the treatment duration to unmask the mild disease phenotype of mdx mouse model.
Motor coordination and strength were assessed using Rota-rod (Ugo Basile, VA, Italy) testing. Briefly, mice were trained on the rota-rod for two days before collecting data. Each acclimatization session consisted of four training sessions, 2 per day and each session lasting 120 seconds at a speed of 5 rpm). Each trial consisted of placing the mice on the rod at 10 rpm for 60 seconds (stabilizing period) followed by an acceleration from 10 rpm to 40 rpm within the first 25 seconds until the animal fell from the rod or until 180 seconds are reached. If the animals fell during the stabilizing period, they were placed back on the rod to complete the session. The total testing time was 240 seconds (60 seconds stabilization time and 180 seconds test time). Each trial was performed twice a day (2 hour interval between sessions) for 3 consecutive days. The latency to fall (seconds) was recorded and all six scores were averaged per mouse. The average data was expressed as latency to fall (in seconds) for each group mice at 3 age groups.
The distal tendon of the extensor digitorum longus (EDL) muscle was tied securely to the lever arm of a servomotor/force transducer (model 305B, Aurora Scientific, Richmond Hill, ON, Canada) and the proximal tendon to a tissue clamp. Muscles were stimulated between two platinum electrodes. […] With the muscle held at Lo using stimulation frequencies of 30, 50, 80, 100, 120 and 150 Hz, the maximum isometric tetanic force (Po) developed during a 300 ms train of stimulation pulses was recorded for the EDL muscle. The muscle length was then measured with calipers and after removal of the muscle from the bath the mass of the muscle was determined. For each muscle, the optimum fiber length (Lf) was calculated by multiplying Lo by a previously determined Lf/Lo ratio of 0.45. Total muscle fiber cross-sectional area was determined by dividing the wet mass by the product of Lf and the density of mammalian skeletal muscle (1.06 mg/mm^3). Maximum isometric specific force (sPo) was determined by dividing Po by the total muscle fiber cross-sectional area.

Another experiment concerns DBA/1 mice. Kind of experiment: Collagen antibody induced arthritis (CAIA) model. Conditions: for Mean clinical severity score / Reduction as compared with vehicle-treated mice: prednisone 5 mg/kg, Example 9 20 mg/kg oral. It is filed as in vivo, mouse. On the procedure: On day 1, DBA/1 mice (Jackson Labs, Bar Harbor, Me.) received an intraperitoneal (i.p.) injection of 2 mg of monoclonal antibody cocktail specific for collagen (CII) (MD Biosciences, St. Paul, Minn.). Two days later (day 3), mice received an i.p. injection of 100 μg of lipopolysaccharide (LPS). Mean clinical severity of CAIA was determined using a macroscopic clinical severity scoring system every 2-3 days by three individuals until the end of the experiment (day 14 post antibody cocktail injection). The scoring criteria was performed as follows: 0: No signs of disease; 1: Mild redness and/or swelling of one digit; 2: Redness and/or swelling of 2 digits; 3: Redness and/or swelling of more than 2 digits; 4: Redness and swelling of entire paw.
For intervention studies, mice (n=10) received an oral dose of 20 mg/kg of the compound of Example 9 suspended in cherry syrup (30 μl total volume) on day 0 through day 14. Additional groups of mice (n=10) received 5 mg/kg of prednisone in cherry syrup as a positive control, or cherry syrup alone as a negative control. On day 14, animals were sacrificed via CO2 exposure. Statistical analysis was performed using a two-way ANOVA followed by a Bonferroni post-hoc test.

Another experiment relates to C57BL/6 mice. Kind of experiment: Mouse carrageenan-induced paw edema model. Format: in vivo. Conditions: 10, 20, 40 mg/kg in cherry syrup; 5 hours after carrageenan. On the procedure:
Female C57BL/6 mice (n=5 per group) were administered prednisone (5 mg/kg) and the compound of Example 9 (10, 20, 40 mg/kg) in cherry syrup. 24 hours later, drugs and vehicle control (syrup) were administered again. 2 hours later, mice were anesthetized, paw thickness was measured with a caliper to obtain a baseline value, and 1% carrageenan was injected subcutaneously in the subplantar region of the right hind paw. Mice were sacrificed 5 hours later and paw edema was measured via caliper. Change in thickness was calculated by subtracting baseline value from post-carrageenan injection value. Statistical analysis was performed using a Student's T-test.
In general terms: The carrageenan paw model is a standard test of acute inflammation.

The subject of another experiment is mice. The experiment in a line: OVA-induced mouse model of acute allergic asthma. It is filed as in vivo. Conditions: 20 mg/kg oral on days 6-11. On the procedure: The model used in the current studies has been previously described (Gwinn et al. 2006; Balsley et al. 2010). Briefly, mice were primed via intraperitoneal (i.p) injection with 50 μg of OVA in PBS with 100 μl of alum (200 μl total volume per mouse) on day 0. OVA-primed mice were challenged under light anesthesia (isoflurane) by intranasal delivery of 100 μg of OVA in PBS on days 7-10. Mice were sacrificed via CO2 exposure on day 12 for analysis.
For in vivo intervention studies, mice (n=5) received an oral dose of 20 mg/kg of the compound of Example 9 suspended in cherry syrup (30 μl total volume) on days 6-11. Additional groups of mice (n=5) received 5 mg/kg of prednisone in cherry syrup as a positive control, or cherry syrup alone as a negative control. Following sacrifice on day 12, leukocytes were collected from the airways via bronchoalveolar lavage (BAL). For this procedure, a cannula was inserted into the trachea and two 1 ml washes of cold PBS were infused in and out of the airways. […]
BAL and lung tissue cells were treated with ammonium chloride lysis buffer to remove red blood cells. The remaining leukocytes were then counted and stained for FACS analysis with a combination of PE-Cy5-anti-mouse CD4 and FITC-anti-mouse CD62L to identify effector/memory CD4+ cells (CD4+/CD62L−). […]

[1] abbreviates: 20 and 40 mg/kg/day for 3 months, vs untreated and prednisolone treated.

Consider `C[C@]12C=CC(=O)C=C1CCC1C2=CC[C@@]2(C)C1CC[C@]2(O)C(=O)CO` (stereo partly drawn) [Example 2, (10S,13S,17R)-17-hydroxy-17-(2-hydroxyacetyl)-10,13-dimethyl-6,7,8,10,12,13,14,15,16,17-decahydro-3H-cyclopenta[a]phenanthren-3-one], for which the “Histology (H&E) of gastrocnemius muscle” value with mdx mice (setting [1]) was “significant decrease in inflammation, degeneration, and increase in regenerating muscle fibers”.
The same measure, in the same setting: as for `C[C@]12CCC(=O)C=C1CCC1C2=CC[C@@]2(C)C1CC[C@]2(O)C(=O)CO` (stereo partly drawn) [Example 1, (10S,13S,17R)-17-hydroxy-17-(2-hydroxyacetyl)-10,13-dimethyl-6,7,8,10,12,13,14,15,16,17-decahydro-1H-cyclopenta[a]phenanthren-3(2H)-one], the entry is “significant decrease in inflammation, degeneration, and increase in regenerating muscle fibers”.
Regarding `C[C@]12C=CC(=O)C=C1CC[C@@H]1[C@@H]2C(=O)C[C@@]2(C)[C@H]1CC[C@]2(O)C(=O)CO` [Prednisone, reference compound], the “Mean clinical severity score” value is reported as 2.4 ± 0.68 with DBA/1 mice (Day 7), 1.5 ± 0.27 with DBA/1 mice (Day 9), 2.9 ± 0.39 in the experiment on DBA/1 mice (Day 11) and 0.7 ± 0.3 in the experiment on DBA/1 mice (Day 14). In addition, the “Reduction as compared with vehicle-treated mice” value was 69.8% with DBA/1 mice (Day 7), 69.8% with DBA/1 mice (Day 9), 69.1% in the experiment with DBA/1 mice (Day 11) and 88.7% in the experiment on DBA/1 mice (Day 14).
Regarding `C[C@@H]1CC2C3CCC4=CC(=O)C=C[C@]4(C)C3=CC[C@]2(C)[C@@]1(O)C(=O)CO` (stereo partly drawn) [Example 9, (10S,13S,16R,17R)-17-hydroxy-17-(2-hydroxyacetyl)-10,13,16-trimethyl-6,7,8,10,12,13,14,15,16,17-decahydro-3H-cyclopenta[a]phenanthren-3-one], the Carrageenan-induced paw edema entry in the experiment on C57BL/6 mice was “effective at reducing mouse paw edema induced by carrageenan”. In addition, the “Collagen antibody induced arthritis” value in the experiment with DBA/1 mice (20 mg/kg oral, day 0 through day 14) was “effective at reducing collagen antibody induced arthritis”. In addition, the “Mean clinical severity score” value with DBA/1 mice (Day 7) is listed as 4.5 ± 0.95; in the experiment with DBA/1 mice (Day 9) it was 5.0 ± 0.77; in the experiment on DBA/1 mice (Day 11) it was 5.6 ± 0.82; in the experiment on DBA/1 mice (Day 14) it was 3.1 ± 0.69. For the same molecule, the “Reduction as compared with vehicle-treated mice” value in the experiment on DBA/1 mice (Day 7) is 43.8%; in the experiment on DBA/1 mice (Day 9), 35.5%; in the experiment with DBA/1 mice (Day 11), 41.3%; in the experiment with DBA/1 mice (Day 14) it was 50%. The “Parameters of acute allergic lung inflammation (leukocyte infiltration, mucus production)” value with mice is “effective at improving parameters of acute allergic lung inflammation”.
As for `C[C@]12C=CC(=O)C=C1CC[C@@H]1[C@@H]2[C@@H](O)C[C@@]2(C)[C@H]1CC[C@]2(O)C(=O)CO` [Prednisolone], the “Body weight vs untreated mice” value with mdx mice (5 mg/kg/day per oral in feed, 33.8 weeks age) is recorded as “significantly lower body weight”. For the same molecule, in the experiment with mdx mice (continuous prednisolone 5 mg/kg/day), the “Histology (H&E) of gastrocnemius muscle” value is “appeared to increase degeneration and decrease in regeneration of dystrophic skeletal muscle”. Also, the “EDL specific force vs untreated” value in the experiment on mdx mice (prednisolone 5 mg/kg/day) is on record as “no statistically significant (P<0.05) difference in specific force”.

For the origin of these results see US10464967B2, “Non-hormonal steroid modulators of NF-κβ for treatment of disease” (Reveragen Biopharma, Inc., priority 2011, dated 2019).
